Measured values taken from patent publication US9963684B2 (priority 2014, dated 2018).
Values joined by “and” are separate entries in the source; they are usually repeats but may differ in a detail not shown here. Equal entries are not always repeated. Where two headings read alike, the source gives them in different places.

Test system: formaldehyde dehydrogenase
Assay type: biochemical, Burkholderia multivorans
[1] = metal ion 1 mM in enzyme reaction solution
[2] = metal ion 5 mM in enzyme reaction solution

## [Ca+2].[Cl-].[Cl-] [CaCl2]
[1]
  Relative activity (%): 50.67%
[2]
  Relative activity (%): 75.96%

## [Cl-].[Cl-].[Mg+2] [MgCl2]
5 frill Mg^2+
  enzyme activity in the presence of metal ion versus without it: 2.7 times
[1]
  Relative activity (%): 147.8%
[2]
  Relative activity (%): 269.6%

## [Cl-].[Cl-].[Zn+2] [ZnCl2]
[1]
  Relative activity (%): 63.99%
[2]
  Relative activity (%): 192.2%

## [Ba+2].[Cl-].[Cl-] [BaCl2]
[1]
  Relative activity (%): 98.55%
[2]
  Relative activity (%): 115.1%

## O=S(=O)([O-])[O-].[Cu+2] [CuSO4]
[1]
  Relative activity (%): 124.3%
[2]
  Relative activity (%): 91.30%

## [Cl-].[K+] [KCl]
[1]
  Relative activity (%): 104.0%
[2]
  Relative activity (%): 94.49%

## [Cl][Mn][Cl] [MnCl2]
[1]
  Relative activity (%): 62.32%
[2]
  Relative activity (%): 111.6%

## [Cl-].[Cl-].[Co+2] [CoCl2]
  Relative activity (%): 58.39% and 72.60%
